According to US20250170140A1, “PHARMACEUTICAL COMPOSITION FOR PREVENTING OR TREATING CANCER COMPRISING CARNITINE ACYLCARNITINE CARRIER INHIBITOR AND PEROXISOMAL BETA OXIDATION INHIBITOR” (priority 2021, published 2025):

What was measured:
Format in all cases: cell-based
MCF-7 cells = assay: SRB assay, breast cancer cell line MCF-7
Procedure: To determine the effect of the combination treatment of omeprazole (KN510), a carnitine acylcarnitine carrier inhibitor, and thioridazine (KN714), a peroxisome beta-oxidation inhibitor, on cancer cell growth, the extent of cancer cell death was determined using the SRB assay (Sulforhodamine B colorimetric assay), and the degree of cancer cell growth was analyzed relative to the control (100%). As a comparison, omeprazole (KN510) and trimetazidine (KN713), a 3-ketoacyl CoA thiolase inhibitor, were co-treated.
First, a pancreatic cancer cell line, MIA PaCa-2, was prepared, and cells (100 μl) were inoculated into 96-well cell culture plates at plating densities ranging from 5,000 to 20,000 cells/well, depending on the doubling time of each cell line. After cell inoculation, 96-well cell culture plates were incubated for 24 hours before the addition of experimental drugs. MIA PaCa2 cells were treated with omeprazole (KN510) at concentrations of 10^−8 M, 10^−7 M, 10^−6 M, 10^−5 M, 10^−4 M, and 10^−3 M, thioridazine (KN714) at concentrations of 10^−10 M, 10^−9 M, 10^−8M, 10^−7 M, 10^−6 M, and 10^−5 M, and trimetazidine (KN713) at concentrations of 10^−7 M, 10^−6 M, 10^−5 M, 10^−4 M, 10^−3 M, and 10^−2 M, respectively.
(§1) The cells were then incubated in a CO2 incubator for 48 hours, after which the assay was terminated by the addition of cold TCA. Cells were fixed in situ by gently adding 50 μl of cold 50% (w/v) TCA (final concentration: 10% TCA) and incubated at 4° C. for 60 min. The supernatant was discarded, and the plate was washed five times with distilled water and air dried. Sulforhodamine B (SRB) solution (100 μl) of 0.4% (w/v) in 1% acetic acid was added to each well, and the plate was left at room temperature for 10 min. After staining, unbound dye was removed by washing five times with 1% acetic acid, and the plate was air-dried. The bound dye was then solubilized with 10 mM trizma base, and the absorbance was recorded at 515 nm using an automated plate reader.
Based on Table 1 above and GI50 values, omeprazole (KN510) and/or thioridazine (KN714) concentrations were added to each well such that the concentrations were as shown in the following groups, and then cancer cell death was measured in the same manner as in Examples 1-1 above. • 1) Control, • 2) Thioridazine (KN714) 5 μM alone treatment group, • 3) Thioridazine (KN714) 10 μM alone treatment group, • 4) Omeprazole (KN510) 200 μM alone treatment group, • 5) Omeprazole (KN510) 200 μM+thioridazine (KN714) 5 μM combination treatment group, • 6) Omeprazole (KN510) 200 μM+thioridazine (KN714) 10 μM combination treatment group.
When the anticancer activity of two compounds in combination is greater than the simple sum of the anticancer activity of the individual compounds (expected activity), this is called synergistic. The predicted synergistic activity of a combination of the present invention can be calculated using the Colby Equation in Equation 1 (S.R. Colby, Weeds, 1967, pp. 15, 20-22): […]
In the present invention, the actual measure of anti-cancer activity of the combination treatment was the inhibition rate of cancer cell growth (%), and the predicted value (E) of the combination treatment was measured by substituting it into the above Colby Equation. If the actual value is greater than the predicted value, it can be judged that there is a synergistic effect, and in this invention, the predicted value calculated by the Colby Equation and the actual value were compared to further verify the synergistic effect of the combination.
Experiments were performed using the breast cancer cell lines MCF-7 cells (1.2×10^4 cells/well) and MDA-MB-231 cells (8.0×10^3 cells/well) in the same manner as in Examples 1-2 and 1-3 above.

HCT-116 cells = assay: SRB assay, colon cancer cell line HCT-116
Procedure: as §1, with “As a comparison, omeprazole (KN510) and trimetazidine (KN713), a 3-ketoacyl CoA thiolase inhibitor, were co-treated. […] After cell inoculation, 96-well cell culture plates were incubated for 24 hours before the addition of experimental drugs. […] The cells” for “The cells”, “plate reader. […] The predicted synergistic activity of a combination of the present invention can be calculated using the Colby Equation in Equation 1 (S.R. Colby, Weeds, 1967, pp. 15, 20-22): In the present invention, the actual measure of anti-cancer activity of the combination treatment was the inhibition rate of cancer cell growth (%), and the predicted value (E) of the combination treatment was measured by substituting it into the above Colby Equation.” for “plate reader.”

K562 cells = assay: SRB assay, leukemia cell line K562
Procedure: as §1, with “As a comparison, omeprazole (KN510) and trimetazidine (KN713), a 3-ketoacyl CoA thiolase inhibitor, were co-treated. […] After cell inoculation, 96-well cell culture plates were incubated for 24 hours before the addition of experimental drugs. […] The cells” for “The cells”, “plate reader. […] The predicted synergistic activity of a combination of the present invention can be calculated using the Colby Equation in Equation 1 (S.R. Colby, Weeds, 1967, pp. 15, 20-22): In the present invention, the actual measure of anti-cancer activity of the combination treatment was the inhibition rate of cancer cell growth (%), and the predicted value (E) of the combination treatment was measured by substituting it into the above Colby Equation.” for “plate reader.”

SR cells = assay: SRB assay, leukemia cell line SR
Procedure: as §1, with “As a comparison, omeprazole (KN510) and trimetazidine (KN713), a 3-ketoacyl CoA thiolase inhibitor, were co-treated. […] After cell inoculation, 96-well cell culture plates were incubated for 24 hours before the addition of experimental drugs. […] The cells” for “The cells”, “plate reader. […] The predicted synergistic activity of a combination of the present invention can be calculated using the Colby Equation in Equation 1 (S.R. Colby, Weeds, 1967, pp. 15, 20-22): In the present invention, the actual measure of anti-cancer activity of the combination treatment was the inhibition rate of cancer cell growth (%), and the predicted value (E) of the combination treatment was measured by substituting it into the above Colby Equation.” for “plate reader.”

UACC-62 cells = assay: SRB assay, melanoma cell line UACC-62
Procedure: as §1, with “As a comparison, omeprazole (KN510) and trimetazidine (KN713), a 3-ketoacyl CoA thiolase inhibitor, were co-treated. […] After cell inoculation, 96-well cell culture plates were incubated for 24 hours before the addition of experimental drugs. […] The cells” for “The cells”, “plate reader. […] The predicted synergistic activity of a combination of the present invention can be calculated using the Colby Equation in Equation 1 (S.R. Colby, Weeds, 1967, pp. 15, 20-22): In the present invention, the actual measure of anti-cancer activity of the combination treatment was the inhibition rate of cancer cell growth (%), and the predicted value (E) of the combination treatment was measured by substituting it into the above Colby Equation.” for “plate reader.”

H1975 cells = assay: SRB assay, lung cancer cells H1975
Procedure: as §1, with “As a comparison, omeprazole (KN510) and trimetazidine (KN713), a 3-ketoacyl CoA thiolase inhibitor, were co-treated. […] After cell inoculation, 96-well cell culture plates were incubated for 24 hours before the addition of experimental drugs. […] The cells” for “The cells”, “plate reader. […] The predicted synergistic activity of a combination of the present invention can be calculated using the Colby Equation in Equation 1 (S.R. Colby, Weeds, 1967, pp. 15, 20-22): In the present invention, the actual measure of anti-cancer activity of the combination treatment was the inhibition rate of cancer cell growth (%), and the predicted value (E) of the combination treatment was measured by substituting it into the above Colby Equation.” for “plate reader.”

ACHN cells = assay: SRB assay, renal cell carcinoma cell line ACHN
Procedure: as §1, with “As a comparison, omeprazole (KN510) and trimetazidine (KN713), a 3-ketoacyl CoA thiolase inhibitor, were co-treated. […] After cell inoculation, 96-well cell culture plates were incubated for 24 hours before the addition of experimental drugs. […] The cells” for “The cells”, “plate reader. […] The predicted synergistic activity of a combination of the present invention can be calculated using the Colby Equation in Equation 1 (S.R. Colby, Weeds, 1967, pp. 15, 20-22): In the present invention, the actual measure of anti-cancer activity of the combination treatment was the inhibition rate of cancer cell growth (%), and the predicted value (E) of the combination treatment was measured by substituting it into the above Colby Equation.” for “plate reader.”

AGS cells = assay: SRB assay, stomach cancer cell line AGS
Procedure: as §1, with “As a comparison, omeprazole (KN510) and trimetazidine (KN713), a 3-ketoacyl CoA thiolase inhibitor, were co-treated. […] After cell inoculation, 96-well cell culture plates were incubated for 24 hours before the addition of experimental drugs. […] The cells” for “The cells”, “plate reader. […] The predicted synergistic activity of a combination of the present invention can be calculated using the Colby Equation in Equation 1 (S.R. Colby, Weeds, 1967, pp. 15, 20-22): In the present invention, the actual measure of anti-cancer activity of the combination treatment was the inhibition rate of cancer cell growth (%), and the predicted value (E) of the combination treatment was measured by substituting it into the above Colby Equation.” for “plate reader.”

[1] = Homo sapiens, KN510 100 μM, read-out: Inhibition rate of cancer cell growth (%) (Actual value)
[2] = Homo sapiens, KN510 200 μM, read-out: Inhibition rate of cancer cell growth (%) (Actual value)

SMILES: COc1ccc2[nH]c([S+]([O-])Cc3ncc(C)c(OC)c3C)nc2c1 (centres unmarked) [KN510, omeprazole]
- inhibition at 100 µM (MCF-7 cells; Homo sapiens, MCF7, KN510 100 μM, read-out: Inhibition rate of cancer cell growth (%) (Actual value)): 34.7%
- inhibition at 200 µM (MCF-7 cells; Homo sapiens, MCF7, KN510 200 μM, read-out: Inhibition rate of cancer cell growth (%) (Actual value)): 50%
- Cancer cell growth rate Average (%) (MCF-7 cells; KN510 100 μM): 65.30%
- Cancer cell growth rate Average (%) (MCF-7 cells; KN510 200 μM): 49.96%
- inhibition at 100 µM (HCT-116 cells; [1]): 15.7%
- inhibition at 200 µM (HCT-116 cells; [2]): 31.1%
- Cancer cell growth rate Average (%) (HCT-116 cells; KN510 100 μM): 84.28%
- Cancer cell growth rate Average (%) (HCT-116 cells; KN510 200 μM): 68.86%
- inhibition at 100 µM (K562 cells; [1]): 44.8%
- inhibition at 200 µM (K562 cells; [2]): 73%
- Cancer cell growth rate Average (%) (K562 cells; KN510 100 μM): 55.18%
- Cancer cell growth rate Average (%) (K562 cells; KN510 200 μM): 27.01%
- inhibition at 100 µM (SR cells; [1]): 35.1%
- inhibition at 200 µM (SR cells; [2]): 70.1%
- Cancer cell growth rate Average (%) (SR cells; KN510 100 μM): 64.90%
- Cancer cell growth rate Average (%) (SR cells; KN510 200 μM): 29.89%
- inhibition at 100 µM (UACC-62 cells; [1]): 53.4%
- inhibition at 200 µM (UACC-62 cells; [2]): 96.4%
- Cancer cell growth rate Average (%) (UACC-62 cells; KN510 100 μM): 46.56%
- Cancer cell growth rate Average (%) (UACC-62 cells; KN510 200 μM): 3.59%
- inhibition at 100 µM (H1975 cells; Homo sapiens, NCI-H1975, KN510 100 μM, read-out: Inhibition rate of cancer cell growth (%) (Actual value)): 15.5%
- inhibition at 200 µM (H1975 cells; Homo sapiens, NCI-H1975, KN510 200 μM, read-out: Inhibition rate of cancer cell growth (%) (Actual value)): 56.8%
- Cancer cell growth rate Average (%) (H1975 cells; KN510 100 μM): 84.54%
- Cancer cell growth rate Average (%) (H1975 cells; KN510 200 μM): 43.18%
- inhibition at 100 µM (ACHN cells; [1]): 38.9%
- inhibition at 200 µM (ACHN cells; [2]): 80.1%
- Cancer cell growth rate Average (%) (ACHN cells; KN510 100 μM): 61.12%
- Cancer cell growth rate Average (%) (ACHN cells; KN510 200 μM): 19.93%
- inhibition at 100 µM (AGS cells; [1]): 39.6%
- inhibition at 200 µM (AGS cells; [2]): 69.5%
- Cancer cell growth rate Average (%) (AGS cells; KN510 100 μM): 60.39%
- Cancer cell growth rate Average (%) (AGS cells; KN510 200 μM): 30.51%
